pIC50: −log10 of the molar value.
Target: Xanthine dehydrogenase/oxidase (Homo sapiens, UniProt P47989)
Experiment: Inhibition of xanthine oxidase by spectrophotometry

Sequence of Xanthine dehydrogenase/oxidase (P47989 whole entry): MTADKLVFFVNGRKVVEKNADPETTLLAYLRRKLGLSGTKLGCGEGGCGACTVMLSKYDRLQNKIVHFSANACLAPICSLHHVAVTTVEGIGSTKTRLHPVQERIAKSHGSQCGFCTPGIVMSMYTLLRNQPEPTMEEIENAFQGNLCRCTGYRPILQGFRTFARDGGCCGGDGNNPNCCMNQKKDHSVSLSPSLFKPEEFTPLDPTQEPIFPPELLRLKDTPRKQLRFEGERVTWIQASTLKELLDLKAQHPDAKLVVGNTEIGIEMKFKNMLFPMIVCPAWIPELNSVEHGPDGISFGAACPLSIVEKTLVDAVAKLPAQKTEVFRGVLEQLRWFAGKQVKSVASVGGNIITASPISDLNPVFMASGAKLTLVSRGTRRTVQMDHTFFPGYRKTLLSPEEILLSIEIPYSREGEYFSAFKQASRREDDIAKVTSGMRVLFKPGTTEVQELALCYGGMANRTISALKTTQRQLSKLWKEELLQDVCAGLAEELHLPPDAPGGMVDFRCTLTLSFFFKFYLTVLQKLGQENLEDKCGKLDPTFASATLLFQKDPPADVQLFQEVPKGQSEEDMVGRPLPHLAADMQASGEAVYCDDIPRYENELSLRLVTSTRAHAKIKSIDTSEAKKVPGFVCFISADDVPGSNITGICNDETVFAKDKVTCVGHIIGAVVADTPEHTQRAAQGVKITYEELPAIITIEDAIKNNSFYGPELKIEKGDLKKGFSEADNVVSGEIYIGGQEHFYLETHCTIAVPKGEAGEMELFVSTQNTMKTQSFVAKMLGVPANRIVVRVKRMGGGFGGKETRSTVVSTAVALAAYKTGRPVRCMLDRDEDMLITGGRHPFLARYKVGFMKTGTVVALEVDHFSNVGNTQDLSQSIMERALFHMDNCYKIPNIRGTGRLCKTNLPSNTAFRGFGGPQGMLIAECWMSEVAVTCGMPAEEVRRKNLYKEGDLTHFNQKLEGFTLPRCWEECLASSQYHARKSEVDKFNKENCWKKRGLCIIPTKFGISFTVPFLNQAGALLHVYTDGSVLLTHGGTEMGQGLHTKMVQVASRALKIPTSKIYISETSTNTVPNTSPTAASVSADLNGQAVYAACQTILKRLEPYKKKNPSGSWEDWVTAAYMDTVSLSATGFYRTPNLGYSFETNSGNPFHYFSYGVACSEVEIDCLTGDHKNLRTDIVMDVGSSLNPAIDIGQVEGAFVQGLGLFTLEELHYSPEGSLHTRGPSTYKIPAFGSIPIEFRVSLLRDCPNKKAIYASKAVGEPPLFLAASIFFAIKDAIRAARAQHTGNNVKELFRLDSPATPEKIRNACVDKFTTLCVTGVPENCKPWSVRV

Molecule `COc1c(O)cc2oc(-c3ccc(O)c(O)c3)c(OC)c(=O)c2c1O` [AXILLARIN] has a pIC50 of 4.44.
`COc1ccc(-c2oc3cc(O)c(OC)c(O)c3c(=O)c2OC)cc1` [SANTIN] showed a pIC50 of 4.44.

Source: ChEMBL document CHEMBL1144076, “New guaianolides and xanthine oxidase inhibitory flavonols from ajania fruticulosa” (J Nat Prod, 1999)
